Earlier results in patent publication EP0307115A1, “Phenol esters” (IMPERIAL CHEMICAL INDUSTRIES PLC, priority 1987, dated 1989).

Conditions: dosed orally in man

absorbed from the gastrointestinal tract, extent of the administered dose: 9-10%
SMILES: O=C(NCCNCC(O)COc1ccc(O)cc1)N1CCOCC1 (racemic) [xamoterol, N-(2-[(RS)-2-hydroxy-3-(4-hydroxyphenoxy)-propylamino]ethyl)morpholine-4-carboxamide]
